Experimental data taken from patent US20140213575A1, “6H-Thieno[3,2-f][1,2,4]triazolo[4,3-a][1,4]diazepines” (BAYER INTELLECTUAL PROPERTY GMBH, priority 2011, published 2014).
Entries after “also recorded” stand apart in the source; their conditions may differ.

Columns and labels:
LNCaP cells = test: Cellular proliferation assay (alamarBlue) LNCaP; type: cell-based; settings: Homo sapiens, 168 hours, read-out: Prostate LNCaP IC50
Description: (§1) In accordance with the invention, the ability of the substances to inhibit the proliferation of various cell lines was determined. Cell viability was determined by means of the alamarBlue® reagent (Invitrogen). […] After incubation overnight at 37° C., the fluorescence values were determined (CI values). […] Then the fluorescence values were determined (CO values).
(§2) The substances were investigated in the cell lines in Table 1, which for example represent the stated indications: […]

MOLM-13 cells [1] = test: MOLM-13 acute monocytic leukaemia tumour model; settings: 70 mg/kg oral daily; significance P<0.05
Description: NMRI nude mice were inoculated subcutaneously in the right flank on day 0 with 2×10^6 MOLM-13 cells in 0.1 ml Matrigel. […] Practical example 1 and practical example 2 were dissolved in 40% PEG400, 5% ethanol, 25% Solutol. The substances were administered orally, daily for […] (day 3 to day 14). […] Practical examples 1 and 2 were applied at a daily dose of 200 (highest dose used), 120 or 70 mg/kg.

VCaP cells = test: Cellular proliferation assay (alamarBlue) VCaP; type: cell-based; settings: Homo sapiens, 168 hours, read-out: Prostate VCaP IC50
Description: as §1, §2

B16F10 cells = test: Cellular proliferation assay (alamarBlue) B16F10; type: cell-based; settings: Mus musculus, B16-F10, 96 hours, read-out: Melanoma B16F10 IC50
Description: as §1, §2

MOLM-13 cells [2] = test: Cellular proliferation assay (alamarBlue) MOLM-13; type: cell-based; settings: Homo sapiens, 96 hours, read-out: Leukaemia MOLM-13 IC50
Description: as §1, §2

HeLa-MaTu cells = test: Cellular proliferation assay (alamarBlue) HeLa-MaTu; type: cell-based; settings: 96 hours, read-out: Cervix HeLa-MaTu IC50
Description: as §1, §2

[3] = B16F10 melanoma tumour model; settings: C57BL/6, mouse, in vivo, po
Description: (§3) C57BL/6 mice were inoculated on day 0 with 0.5×10^6 cells in 0.1 ml medium, subcutaneously, in the right flank. […] The substances were administered orally for 10 days (day 2 to day 11). […] Practical example 2 was applied at a dose of 160 or 120 mg/kg.

B16F10 melanoma = B16F10 melanoma tumour model; settings: for weight loss: oral, day 2 to day 11
Description: as §3

[4] = In-vivo tolerability in the mouse; set-up: species or system female NMRI nude mice; settings: for Drug-induced deaths (day): 3 animals per group
Description: The substances were formulated in NMP/PEG300 (1/9 V/V). They were administered orally, in an amount of 10 ml/kg, once or twice daily for a period of 5 to 7 days to female NMRI nude mice (6-8 weeks old; 3 animals per group). Body weight and mortality of the mice were monitored daily up to the end of the study. Toxicity was defined as follows: ≧10% substance-induced deaths or ≧20% weight loss.

plasma proteins = test: Plasma protein binding by equilibrium dialysis; type: in vitro ADME, mouse
Description: The binding of test substances to plasma proteins is determined by equilibrium dialysis by means of the Ht-dialysis apparatus (96-well) made of Teflon and a semipermeable membrane (regenerated cellulose, MWCO 12-14K). This separates 150 μl of each of a plasma side and a buffer side (50 mM phosphate buffer). The test substance is added in 2 concentrations (usually 3 and 0.3 μM) to the plasma side and binds to plasma proteins. The unbound fraction of the test substance passes through the membrane and is distributed on either side until equilibrium is established (after approx. 6-8 h at 37° C.). The substance concentration on the buffer side and the plasma side is determined by LC-MS analysis. For this, both sides are brought by dilution with buffer or plasma to the same matrix (10% plasma) and then precipitated with methanol. The free (unbound) fraction (fu) is calculated from the quotient of the buffer and plasma concentration. Stability tests and recovery tests are run concurrently as controls. In addition, the substance in buffer is dialysed against buffer, to check the nonspecific binding to apparatus and membrane and establishment of equilibrium. Because during incubation the osmotic pressure of the plasma proteins leads to dilution of the plasma (volume shift), this possible error is determined by weighing blank plasma samples and is included in the calculation of fu. Establishment of equilibrium and plasma stability should have a value not lower than 80% and the recovery should be at least 30%. A free fraction of <1% is regarded as high, between 1 and 10% as moderate and >10% as low plasma protein binding.

MDA-MB-231 cells = test: Cellular proliferation assay (alamarBlue) MDA-MB-231; type: cell-based; settings: Homo sapiens, 96 hours, read-out: Breast MDA-MB-231 IC50
Description: as §1, §2

MOLP-8 cells = test: Cellular proliferation assay (alamarBlue) MOLP-8; type: cell-based; settings: Homo sapiens, 120 hours, read-out: Multiple myeloma MOLP-8 IC50
Description: as §1, §2

MCF-7 cells = test: Cellular proliferation assay (alamarBlue) MCF-7; type: cell-based; settings: Homo sapiens, MCF7, 96 hours, read-out: Breast MCF-7 IC50
Description: as §1, §2

[5] = Plasma concentrations from in-vivo tests and PK parameters; settings: mouse; for Plasma concentration: 60 mg/kg p.o.
Description: After thawing and shaking, the samples are centrifuged for 20 minutes at 4° C. and approx. 2000×g. An aliquot of the supernatant (approx. 25 μL) is measured by LCMS analysis. If high plasma or tissue levels are expected (>ULOQ, as a rule 5 μM) the precipitated samples are additionally diluted 1:100 with ACN/H2O (80/20, v/v)+internal standard and corresponding aliquots are measured by LCMS. For this, the test substance is added in 5-9 concentrations, corresponding to the determination range of the analytical method, to a control matrix (calibration samples), e.g. 0, 1, 10, 100, 1000, 5000 nM. For this, a portion of solid is weighed and is dissolved in DMSO (as a rule 1 mM stock solution). This stock solution is further diluted 1:10 with DMSO ([…]). Then 1:5 (v/v) ACN+internal standard (soln. A) is added to the calibration samples and processed further as with the plasma samples. The calibration series in solvent takes place similarly to the plasma calibration described. The test substance is in this case prepared in ACN/H2O (50/50, v/v) and then 1:5 (v/v) ACN+internal standard is added to the samples. This series serves for calibration of the diluted samples. The following PK parameters are calculated from these concentration-time profiles obtained: […]
AUC(0-tlast),norm multiplied by the free fraction (fu) of the species investigated.

[6] = oral 50 mg/kg, QD × 5, twice daily
[7] = oral 100 mg/kg, QD × 5, twice daily
[8] = oral 100 mg/kg, QD × 7, once daily

SMILES: Cc1sc2c(c1C)C(c1ccc(Cl)cc1)=N[C@@H](CC(=O)OC(C)(C)C)c1nnc(C)n1-2 [Example V1, tert-Butyl[(S)-4-(4-chlorophenyl)-2,3,9-trimethyl-6H-thieno[3,2-f][1,2,4]triazolo[4,3-a][1,4]diazepin-6-yl]acetate, reference compound]
- IC50 (LNCaP cells): 63 nM
- activity on tumour growth (MOLM-13 cells [1]): biologically active
- IC50 (VCaP cells): 37 nM
- IC50 (B16F10 cells): 67 nM
- IC50 (MOLM-13 cells [2]): 59 nM
- IC50 (HeLa-MaTu cells): 107 nM
- MTD at 10 days [3]: 55 mg/kg
- weight loss (B16F10 melanoma; 120 mg/kg dose): 2%
- weight loss (B16F10 melanoma; 160 mg/kg dose): 6%
- deaths (B16F10 melanoma; on day 12, in both dose groups): One mouse (out of 12) died
- maximum body weight loss ([4]; 50 mg/kg twice daily, on day 6): 7%
- highest weight loss ([4]; daily dose of 100 mg/kg for 7 days, on the 9th day): 10%
- MTD ([4]; female, NMRI nude, mouse, in vivo, oral, once daily, read-out: maximum tolerated treatment dose (MTD), single daily treatment): 100 mg/kg
- % maximum body weight change (day) [4, 6]: −7 (6) %
- Remarks (tolerability) [4, 6]: MTD
- Drug-induced deaths (day) [4, 6]: 0/3
- % maximum body weight change (day) [4, 7]: −19 (5) %
- Remarks (tolerability) ([4]; oral 100 mg/kg, QD × 5, twice daily, 100 mg/kg): Not tolerated
- Drug-induced deaths (day) [4, 7]: 2
- % maximum body weight change (day) [4, 8]: −10 (9) %
- Remarks (tolerability) ([4]; oral 100 mg/kg, QD × 7, once daily, 100 mg/kg): tolerated; also recorded: MTD (10% body-
- Drug-induced deaths (day) [4, 8]: 0/3
- fu (plasma proteins; free fraction of the species investigated (mouse), as used in Table 6): 1.5%
- fraction unbound (plasma proteins; mouse, plasma, free (unbound) fraction, equilibrium dialysis, read-out: Protein binding, given as % fu): 0.015
- IC50 (MDA-MB-231 cells): 86 nM
- IC50 (MOLP-8 cells): 63 nM
- IC50 (MCF-7 cells): 148 nM
- Plasma concentration ([5]; 1 h): 2245.8 ng/mL
- Plasma concentration ([5]; 3 h): 1220.2 ng/mL
- Plasma concentration ([5]; 5 h): 587.2 ng/mL
- Plasma concentration ([5]; 7 h): 321.5 ng/mL
- AUC(0-tlast),norm,u ([5]; single oral dose 60 mg/kg, AUCnorm multiplied by fu): 0.002 kg·h/L
- AUC(0-tlast),norm ([5]; single oral dose 60 mg/kg, dose-normalized): 0.12 kg·h/L
- tlast ([5]; single oral dose 60 mg/kg, last time point with measurable plasma concentration): 7.0 h
